What was measured:
Type in all cases: cell-based, human
[1] = system: SW480 cells; test: Colony formation assay; conditions: SW480, 11 days, relative to untreated control
Experimental: For the colony formation assay, SW480 cells were seeded at a density of 350 cells/2 mL into each well of 6-well plates (CytoOne, tissue culture treated) and left to adhere for 24 h. To determine the long-term effects of the test compounds, the cells were exposed to them for 11 days at 37 °C and 5% CO2. After incubation, the wells were gently washed with 1 mL cold PBS and the colonies were fixed with 1 mL cold (4 °C) 100% methanol (Thermo Fisher, Waltham, MA, USA) for 30 min at 4 °C and washed with 1 mL PBS again. The fixed colonies were stained with 1 mL of 0.5% w/v crystal violet (Sigma-Aldrich) in methanol for 2 min and the plates were washed under tap water. After drying the plates, images of the wells were captured, and colonies were counted with the colony counting function of Fusion Fx7 software (Vilber Lourmat, Collégien, France). Results were normalized to untreated controls. Data are averaged from at least three independent experiments.

[2] = system: CH1/PA-1 cells; test: Cell cycle distribution (PI staining, flow cytometry); conditions: CH1/PA-1, 24 h
Experimental: (§1) For the flow-cytometric determination of cell cycle distribution, CH1/PA-1 (8 × 10^4 cells/well) and SW480 (1.2 × 10^5 cells/well) cells were seeded into 12-well plates (CytoOne, tissue culture treated) in 1 mL supplemented MEM. In the first 24 h, the cells were allowed to settle and resume exponential growth. […] Gemcitabine (Sigma-Aldrich, 0.01 and 0.05 µM) and etoposide (Sigma-Aldrich, 0.25, 0.5 and 1 µM) were used as positive controls. After removal of the treatment medium, cells were washed with 1 mL PBS and trypsinized. Cells were collected in Eppendorf tubes and centrifuged (300 g, 3 min), and the supernatant was discarded. In the following step, cells were washed with 1 mL PBS and resuspended in 500 µL PI/HFS buffer (0.1% v/v Triton X-100, 0.1% w/v sodium citrate, in PBS) containing 25 µg/mL propidium iodide (PI, 1.0 mg/mL, Sigma-Aldrich). The staining was carried out overnight at 4 °C in the dark, and 200 µL of the cell suspension was loaded into 96-well round bottom plates (Falcon). Samples were measured with a Millipore Guava easyCyte 8HT flow cytometer with GuavaSoft™ software in the InCyte-modus, and 10,000 events/sample were detected. Data were analyzed with FlowJo software v 10.8.1 (Tree Star, Ashland, OR, USA) using Watson algorithm. Percentages of cells in the three cell cycle phases (G1/G0, S and G2/M) were calculated by integrating the resulting histograms of fluorescence signals (Figures S29 and S30). Experiments were repeated at least three times. For statistical evaluation, an unpaired t-test with Welch’s correction was performed by using GraphPad PRISM software.

[3] = system: SW480 cells; test: as above; conditions: SW480, 24 h
Experimental: as §1

[4] = system: A549 non-small cell lung cancer cells; test: MTT assay (cytotoxicity)
Experimental: (§2) CH1/PA-1 ovarian teratocarcinoma cells (provided by L. R. Kelland, CRC Centre for Cancer Therapeutics, Institute of Cancer Research, Sutton, UK; confirmed by STR profiling as PA-1 ovarian teratocarcinoma cells at Multiplexion, Heidelberg, Germany), SW480 colon carcinoma and A549 non-small cell lung cancer cells (both obtained from the American Type Culture Collection, Manassas, VA, USA) were grown as adherent cultures in 75 cm² culture flasks (CytoOne, Starlab, Hamburg, Germany) by using minimal essential medium (MEM) supplemented with 1 mM sodium pyruvate, 4 mM L-glutamine, 1% (v/v) nonessential amino acids from 100-fold stock (all purchased from Sigma-Aldrich) and 10% heat-inactivated fetal bovine serum (BioWest, Nuaillé, France). Cells were maintained under standard culture conditions with 5% CO2 at 37 °C in a humidified atmosphere.
(§3) The 3-(4,5-dimethylthiazol-2-yl)-2,5-diphenyl-2H-tetrazolium bromide (MTT, Acros Organics, Geel, Belgium) assay was used to detect the cytotoxicity of the compounds after 24 h and 96 h incubation. In brief, cells were harvested from culture flasks and the following cell numbers (each in 100 µL) were seeded into 96-well culture plates (CytoOne, tissue culture treated, Starlab, Hamburg, Germany) for 24 h incubation: 1 × 10^4 (CH1/PA-1), 1 × 10^4 (SW480) and 1.5 × 10^4 (A549) cells per well; and for 96 h incubation: 1 × 10^3 (CH1/PA-1), 2 × 10^3 (SW480) and 3 × 10^3 (A549) cells per well. After 24 h, cells resuming their exponential growth rate were treated with test compounds at nine concentrations obtained by serial two-fold dilution. Stock solutions were prepared in DMSO (20 mM or 40 mM) and diluted in supplemented MEM. An amount of 100 µL of each concentration was added to the plates in triplicates and cells were exposed for 24 or 96 h. Afterward, the medium was replaced with 100 µL of MTT solution (5 mg/mL) in phosphate-buffered saline (PBS, Sigma-Aldrich), diluted 1:7 in RPMI 1640 medium (supplemented with 4 mM L-glutamine and 10% heat-inactivated FBS). Upon cell-viability-dependent conversion of the yellow, water-soluble tetrazolium salt into purple formazan products for 4 h, the crystals were dissolved in 150 µL DMSO. The absorbance of the resulting solutions, which is directly proportional to the number of viable cells, was measured at 550 nm (and at 690 nm as a reference) with a microplate reader (ELx808, BioTek, Winoosky, VT, USA) and Gen5TM 3.08 software (BioTek). Blank-corrected optical densities were subjected to graphical evaluation and interpolation of IC50 values. At least three biologically and technically independent experiments were performed.

[5] = system: CH1/PA-1 ovarian teratocarcinoma cells; test: MTT assay (cytotoxicity); conditions: CH1/PA-1, MTT
Experimental: as §2, §3

[6] = system: SW480 colon carcinoma cells; test: MTT assay (cytotoxicity)
Experimental: as §2, §3

Row | Structure (SMILES) | Cells in G1/G0 phase ([2]; 100 µM) | Cells in G2/M phase ([2]; 100 µM) | Cells in S phase ([2]; 100 µM) | Cells in G1/G0 phase ([2]; 150 µM) | Cells in G2/M phase ([2]; 150 µM) | Cells in S phase ([2]; 150 µM) | IC50 ([4]; 24 h exposure) | IC50 ([5]; 24 h exposure) | IC50 ([6]; 24 h exposure) | Number of colonies ([1]; 5 µM) | Cells in G1/G0 phase ([2]; 200 µM) | Cells in G2/M phase ([2]; 200 µM) | Cells in S phase ([2]; 200 µM) | Cells in G1/G0 phase ([3]; 5 µM) | Cells in G2/M phase ([3]; 5 µM) | Cells in S phase ([3]; 5 µM) | IC50 ([4]; 96 h exposure) | IC50 ([5]; 96 h exposure) | IC50 ([6]; 96 h exposure) | also measured
1 | CC1=C([O-])C([O-])(n2cccn2)c2ccccc2C1=O.Cc1ccc(C(C)C)cc1.[Ru+2] (racemic) [Compound 1] | 19.8 ± 2.1% | 40.9 ± 4.0% | 45.8 ± 3.8% | 20.0 ± 1.3% | 31.0 ± 3.2% | 52.9 ± 1.9% | 3.8 ± 2.6 µM | 59 ± 18 µM | 0.46 ± 0.14 µM |  |  |  |  |  |  |  |  |  |  | Number of colonies ([1]; 0.039 µM): 18 ± 5%; Number of colonies ([1]; 0.078 µM): 3.1 ± 0.8%; Number of colonies ([1]; 0.16 µM): 0.26 ± 0.43%; Cells in G1/G0 phase ([2]; 50 µM): 18.7 ± 1.7%; Cells in G2/M phase ([2]; 50 µM): 48.2 ± 5.5%; Cells in S phase ([2]; 50 µM): 39.2 ± 8.7%; Increase of S phase fraction relative to untreated control ([2]; concentration-dependent): up to 11%; Cells in G1/G0 phase ([3]; 0.039 µM): 23.8 ± 6.1%; Cells in G2/M phase ([3]; 0.039 µM): 37.2 ± 2.3%; Cells in S phase ([3]; 0.039 µM): 40.0 ± 2.1%; Cells in G1/G0 phase ([3]; 0.078 µM): 15.4 ± 1.2%; Cells in G2/M phase ([3]; 0.078 µM): 34.5 ± 2.1%; Cells in S phase ([3]; 0.078 µM): 53.4 ± 1.1%; Cells in G1/G0 phase ([3]; 0.16 µM): 25.0 ± 8.2%; Cells in G2/M phase ([3]; 0.16 µM): 22.5 ± 4.3%; Cells in S phase ([3]; 0.16 µM): 56.2 ± 8.4%
2 | CC1=C([O-])C([O-])(n2cccn2)c2ccccc2C1=O.[Ru+2].c1ccccc1 (racemic) [Compound 2] | 29.9 ± 5.7% | 37.0 ± 6.1% | 39.9 ± 1.4% | 30.8 ± 7.1% | 38.3 ± 5.3% | 36.5 ± 3.3% | > 200 µM | 170 ± 23 µM | 31 ± 3 µM | 48 ± 9% | 29.7 ± 8.5% | 33.0 ± 3.0% | 39.1 ± 0.8% | 36.0 ± 6.7% | 32.0 ± 2.6% | 34.2 ± 3.8% | 141 ± 38 µM | 157 ± 8 µM | 9.9 ± 2.5 µM | Number of colonies ([1]; 10 µM): 20 ± 4%; Number of colonies ([1]; 20 µM): 3.5 ± 1.5%; Cells in G1/G0 phase ([3]; 10 µM): 22.6 ± 5.7%; Cells in G2/M phase ([3]; 10 µM): 40.9 ± 4.2%; Cells in S phase ([3]; 10 µM): 38.8 ± 7.9%; Cells in G1/G0 phase ([3]; 20 µM): 22.3 ± 6.3%; Cells in G2/M phase ([3]; 20 µM): 27.9 ± 9.0%; Cells in S phase ([3]; 20 µM): 52.1 ± 3.3%
3 | CC1=C([O-])C([O-])(n2cccn2)c2ccccc2C1=O.Cc1ccccc1.[Ru+2] (racemic) [Compound 3] | 25.8 ± 4.6% | 40.1 ± 2.7% | 38.6 ± 1.5% | 23.1 ±7.0% | 36.9 ± 1.5% | 40.8 ± 0.6% | > 200 µM | 121 ± 18 µM | 11 ± 2 µM | 4.3 ± 3.7% | 24.9 ± 5.8% | 40.3 ± 2.6% | 36.4 ± 1.2% | 20.4 ± 5.9% | 28.2 ± 5.6% | 54.1 ± 3.2% | 72 ± 12 µM | 138 ± 10 µM | 2.8 ± 0.7 µM | Number of colonies ([1]; 1.25 µM): 53 ± 8%; Number of colonies ([1]; 2.5 µM): 23 ± 8%; Cells in G1/G0 phase ([3]; 1.25 µM): 28.4 ± 7.8%; Cells in G2/M phase ([3]; 1.25 µM): 35.1 ± 1.8%; Cells in S phase ([3]; 1.25 µM): 38.2 ± 7.1%; Cells in G1/G0 phase ([3]; 2.5 µM): 17.6 ± 4.5%; Cells in G2/M phase ([3]; 2.5 µM): 43.1 ± 7.6%; Cells in S phase ([3]; 2.5 µM): 43.3 ± 7.4%

Reference: paper PMC9699003, “Arene Variation of Highly Cytotoxic Tridentate Naphthoquinone-Based Ruthenium(II) Complexes and In-Depth In Vitro Studies” (Pharmaceutics, 2022)
